These results are taken from ChEMBL document CHEMBL3431459, “Roche carnitine palmitoyltransferase modulator screening data (supplementary data associated with the publication CHEMBL2216752)”.

Each structure is given as a SMILES string. pIC50: −log10 of the molar value. Values after ≈ are worked out from the molar mass of the structure shown.

Data set [1] has as its target T1, Carnitine O-palmitoyltransferase 1, muscle isoform (Homo sapiens, UniProt Q92523).
T1 sequence (Q92523 whole entry): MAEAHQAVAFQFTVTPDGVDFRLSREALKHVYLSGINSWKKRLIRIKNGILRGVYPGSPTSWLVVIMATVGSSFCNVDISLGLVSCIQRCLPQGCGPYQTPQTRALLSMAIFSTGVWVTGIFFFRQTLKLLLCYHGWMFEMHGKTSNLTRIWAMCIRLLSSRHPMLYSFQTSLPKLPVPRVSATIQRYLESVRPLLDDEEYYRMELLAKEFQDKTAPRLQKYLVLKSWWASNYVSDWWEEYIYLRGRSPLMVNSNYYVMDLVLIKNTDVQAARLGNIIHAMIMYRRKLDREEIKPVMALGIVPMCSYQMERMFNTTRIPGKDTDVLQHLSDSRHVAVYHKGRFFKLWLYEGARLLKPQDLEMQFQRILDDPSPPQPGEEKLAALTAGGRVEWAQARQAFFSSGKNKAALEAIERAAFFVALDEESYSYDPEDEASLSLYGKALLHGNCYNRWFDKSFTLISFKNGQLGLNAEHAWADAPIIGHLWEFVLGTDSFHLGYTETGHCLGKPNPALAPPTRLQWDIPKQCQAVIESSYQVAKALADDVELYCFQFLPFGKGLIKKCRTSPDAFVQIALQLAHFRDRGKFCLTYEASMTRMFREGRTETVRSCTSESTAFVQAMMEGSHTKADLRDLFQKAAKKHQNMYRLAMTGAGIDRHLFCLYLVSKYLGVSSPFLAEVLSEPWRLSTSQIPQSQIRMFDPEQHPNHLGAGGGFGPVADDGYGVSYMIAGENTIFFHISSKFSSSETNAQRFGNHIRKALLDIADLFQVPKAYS
Put plainly: SUPPLEMENTARY: Inhibition of Carnitine palmitoyltransferase 1, muscle isoform. Further details: species or system Muscle tissue.

In data set [2] the target is T2, Carnitine O-palmitoyltransferase 2, mitochondrial (Homo sapiens, UniProt P23786).
T2 sequence (P23786 whole entry): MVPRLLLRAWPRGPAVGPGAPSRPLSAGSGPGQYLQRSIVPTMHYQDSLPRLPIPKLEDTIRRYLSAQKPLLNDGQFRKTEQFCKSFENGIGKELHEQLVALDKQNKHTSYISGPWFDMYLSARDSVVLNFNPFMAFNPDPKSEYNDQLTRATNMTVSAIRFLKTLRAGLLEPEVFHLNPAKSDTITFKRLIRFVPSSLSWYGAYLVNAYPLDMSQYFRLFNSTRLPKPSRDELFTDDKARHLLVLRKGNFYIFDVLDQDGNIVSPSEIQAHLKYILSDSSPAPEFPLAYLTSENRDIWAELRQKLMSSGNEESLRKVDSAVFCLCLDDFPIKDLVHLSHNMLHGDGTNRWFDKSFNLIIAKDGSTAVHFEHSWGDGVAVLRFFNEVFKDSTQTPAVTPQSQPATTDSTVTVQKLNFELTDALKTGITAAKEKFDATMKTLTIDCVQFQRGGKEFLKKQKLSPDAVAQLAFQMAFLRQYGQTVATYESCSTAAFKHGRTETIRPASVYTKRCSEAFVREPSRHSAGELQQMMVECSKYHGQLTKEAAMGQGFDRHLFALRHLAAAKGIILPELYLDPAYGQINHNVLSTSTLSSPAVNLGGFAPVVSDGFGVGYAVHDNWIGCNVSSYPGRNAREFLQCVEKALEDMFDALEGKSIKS
Description: (§1) SUPPLEMENTARY: Inhibition of Carnitine palmitoyltransferase 2.

For data set [3], the target named is T3, Carnitine O-palmitoyltransferase 2, mitochondrial (Rattus norvegicus, UniProt P18886).
T3 sequence (P18886 whole entry): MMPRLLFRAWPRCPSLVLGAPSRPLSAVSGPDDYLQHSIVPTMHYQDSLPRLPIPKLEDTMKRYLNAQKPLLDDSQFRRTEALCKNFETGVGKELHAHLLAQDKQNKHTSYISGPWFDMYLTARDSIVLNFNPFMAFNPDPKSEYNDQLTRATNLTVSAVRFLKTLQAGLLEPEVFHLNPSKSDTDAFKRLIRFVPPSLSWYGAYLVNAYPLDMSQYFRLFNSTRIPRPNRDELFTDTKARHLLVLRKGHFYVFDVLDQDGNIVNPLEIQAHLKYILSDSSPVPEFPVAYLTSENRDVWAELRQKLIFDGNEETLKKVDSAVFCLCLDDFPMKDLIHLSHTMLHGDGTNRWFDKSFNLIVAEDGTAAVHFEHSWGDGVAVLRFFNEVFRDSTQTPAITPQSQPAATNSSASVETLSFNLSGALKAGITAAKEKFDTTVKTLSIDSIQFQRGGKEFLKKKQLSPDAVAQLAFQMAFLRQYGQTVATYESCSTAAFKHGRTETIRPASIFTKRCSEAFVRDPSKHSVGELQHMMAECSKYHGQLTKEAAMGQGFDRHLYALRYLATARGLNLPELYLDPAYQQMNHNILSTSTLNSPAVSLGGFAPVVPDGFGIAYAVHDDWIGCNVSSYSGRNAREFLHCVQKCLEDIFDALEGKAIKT
The description is as §1.

Data set [4] concerns the target T4, Carnitine O-palmitoyltransferase 1, liver isoform (Homo sapiens, UniProt P50416).
T4 sequence (P50416 whole entry): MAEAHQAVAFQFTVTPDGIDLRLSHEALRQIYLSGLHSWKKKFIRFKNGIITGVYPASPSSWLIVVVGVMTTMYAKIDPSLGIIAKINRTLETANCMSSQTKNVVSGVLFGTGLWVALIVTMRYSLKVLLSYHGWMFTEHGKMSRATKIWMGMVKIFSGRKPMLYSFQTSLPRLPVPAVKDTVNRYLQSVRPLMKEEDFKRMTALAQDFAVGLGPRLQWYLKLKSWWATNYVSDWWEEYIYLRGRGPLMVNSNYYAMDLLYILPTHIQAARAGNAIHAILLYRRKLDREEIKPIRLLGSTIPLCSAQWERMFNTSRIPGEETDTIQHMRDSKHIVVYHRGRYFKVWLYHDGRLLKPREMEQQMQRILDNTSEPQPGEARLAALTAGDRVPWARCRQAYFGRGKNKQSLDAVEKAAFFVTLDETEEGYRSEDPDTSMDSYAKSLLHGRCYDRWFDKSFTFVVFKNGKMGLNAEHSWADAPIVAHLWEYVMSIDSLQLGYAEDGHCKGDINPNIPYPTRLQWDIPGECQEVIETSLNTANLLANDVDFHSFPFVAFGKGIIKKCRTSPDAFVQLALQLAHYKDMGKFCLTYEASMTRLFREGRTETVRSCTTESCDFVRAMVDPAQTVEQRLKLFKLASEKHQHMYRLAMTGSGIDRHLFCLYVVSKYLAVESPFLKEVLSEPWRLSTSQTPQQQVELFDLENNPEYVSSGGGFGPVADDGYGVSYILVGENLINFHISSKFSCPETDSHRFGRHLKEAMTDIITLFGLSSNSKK
Description: (§2) SUPPLEMENTARY: Inhibition of Carnitine palmitoyltransferase 1, liver isoform.

The target in data set [5] is T5, Carnitine O-palmitoyltransferase 1, liver isoform (Rattus norvegicus, UniProt P32198).
T5 sequence (P32198 whole entry): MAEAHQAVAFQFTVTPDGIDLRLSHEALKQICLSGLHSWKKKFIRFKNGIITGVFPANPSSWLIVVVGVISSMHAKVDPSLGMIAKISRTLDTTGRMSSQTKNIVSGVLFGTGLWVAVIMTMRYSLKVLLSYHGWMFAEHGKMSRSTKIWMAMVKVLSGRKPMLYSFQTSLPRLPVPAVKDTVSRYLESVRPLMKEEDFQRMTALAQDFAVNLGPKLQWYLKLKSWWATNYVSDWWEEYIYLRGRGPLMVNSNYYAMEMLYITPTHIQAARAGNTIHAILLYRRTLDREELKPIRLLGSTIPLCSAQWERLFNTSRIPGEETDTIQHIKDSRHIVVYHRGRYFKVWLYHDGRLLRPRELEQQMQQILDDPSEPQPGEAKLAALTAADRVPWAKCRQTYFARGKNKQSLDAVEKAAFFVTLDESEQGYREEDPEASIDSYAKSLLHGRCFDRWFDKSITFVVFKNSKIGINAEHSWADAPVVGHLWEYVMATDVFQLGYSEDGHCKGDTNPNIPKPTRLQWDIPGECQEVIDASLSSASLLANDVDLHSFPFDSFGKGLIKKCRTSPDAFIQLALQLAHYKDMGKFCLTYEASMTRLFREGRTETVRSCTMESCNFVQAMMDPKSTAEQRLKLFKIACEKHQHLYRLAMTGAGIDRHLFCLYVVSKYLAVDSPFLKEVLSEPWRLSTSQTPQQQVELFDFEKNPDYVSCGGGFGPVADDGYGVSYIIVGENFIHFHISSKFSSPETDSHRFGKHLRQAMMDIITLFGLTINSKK
The data set is described as §2.

Data set [6] can be described thus: SUPPLEMENTARY: Lyophilisation Solubility Assay (LYSA). It is filed as physicochemical. The settings on record: read-out: Kinetic_solubility.
Data set [7] is described as follows: SUPPLEMENTARY: Lipophilicity (log D) Determination by high-throughput shake-flask. The class given is physicochemical. The settings on record: octanol/water.
A short description of data set [8]: SUPPLEMENTARY: PAMPA permeability assay. It is filed as physicochemical. The note with it: read-out: Permeability.

Turning to `O=C(COc1ccccc1)N1CCCC[C@@H]1c1nc(-c2ccc3[nH]c(=O)[nH]c3c2)no1`, the pIC50 in data set [1] was 4.88; in data set [2] it was 4.16; in data set [3], 4.82; in data set [4] it was 7.45; in data set [5], 6.32. In addition, the solubility kinetic in data set [6] came to 44 µg/mL (≈ 105 µM). In data set [7], this compound had a logD of 2.51. The Papp in data set [8] came to 24.3 nm/s.

With `O=C(Nc1ccc(-c2nnn[nH]2)cc1)c1nn(Cc2ccc(OC(F)F)cc2)c2ccc(F)cc12`, the pIC50 in data set [1] is 4.57; in data set [2], less than 4.00; in data set [3] it was less than 4.00; in data set [4], 6.68; in data set [5], 5.54. Also, the solubility kinetic in data set [6] was 1 µg/mL (≈ 2.09 µM). This compound also had a logD in data set [7] of more than 3. Moreover, the Papp in data set [8] is 4.6 nm/s.

Regarding `CN1CCN(C(=O)COc2ccccc2)[C@@H](c2nc(-c3cccc(C(F)(F)F)c3)n[nH]2)C1`, the pIC50 in data set [1] was less than 4.00; in data set [2] it was 4.02; in data set [3] it was less than 4.00; in data set [4] it was 7.43; in data set [5] it was 7.26. For the same compound, in data set [6], the solubility kinetic worked out at 81 µg/mL (≈ 182 µM). The logD in data set [7] was 3.19. The Papp in data set [8] was determined as 23.1 nm/s.

Turning to `O=C1Cc2cc(-c3noc([C@H]4CCCCN4C(=O)COc4ccccc4)n3)ccc2N1`, the pIC50 is 4.56 in data set [1]; 4.37 in data set [2]; 4.27 in data set [3]; 7.88 in data set [4]; 7.15 in data set [5]. For the same compound, the solubility kinetic in data set [6] is 14.5 µg/mL (≈ 34.7 µM). The logD in data set [7] was 2.93. In addition, in data set [8], the Papp was 26.1 nm/s.

Consider `COc1ccc(Cl)cc1S(=O)(=O)Nc1cccc(C#Cc2ccc(C(=O)O)cc2)c1`, for which the pIC50 in data set [1] is 4.35; in data set [2], less than 4.00; in data set [3] it was less than 4.00; in data set [4], 6.65; in data set [5], 7.07. Moreover, in data set [6], the solubility kinetic was found to be 8 µg/mL (≈ 18.1 µM). For the same compound, the logD in data set [7] was found to be 2.38. Moreover, in data set [8], the Papp amounted to 7.5 nm/s.

In the case of `O=C(COc1ccccc1)N1CCCC[C@@H]1c1nc(-c2ccc3[nH]cnc3c2)no1`, the pIC50 in data set [1] was less than 4.00; in data set [2], 4.72; in data set [3], 4.72; in data set [4], 7.58; in data set [5], 6.97. For the same compound, the solubility kinetic in data set [6] was 9.55 µg/mL (≈ 23.7 µM). Further, the logD in data set [7] is 3.08. Besides, the Papp in data set [8] was found to be 28 nm/s.

In the case of `COc1ccc(Cl)cc1S(=O)(=O)N1CCOc2ccc(C(=O)Nc3ccc(-c4noc(=O)[nH]4)cc3)cc21`, the pIC50 in data set [1] is 6.87; in data set [2], less than 4.00; in data set [3], less than 4.00; in data set [4], 7.21; in data set [5], 6.82. Also, in data set [6], the solubility kinetic was found to be 1 µg/mL (≈ 1.84 µM). Besides, the logD in data set [7] is 2.22. Further, the Papp in data set [8] was 9.3 nm/s.

Turning to `O=C1Cc2ccc(-c3n[nH]c([C@H]4CCCCN4C(=O)COc4ccccc4)n3)cc2N1`, the pIC50 is less than 4.00 in data set [1]; 4.40 in data set [2]; 4.37 in data set [3]; 6.68 in data set [4]; 5.94 in data set [5]. The solubility kinetic in data set [6] stood at 73 µg/mL (≈ 175 µM). For the same compound, in data set [7], the logD was 2.35. Further, the Papp in data set [8] amounted to 32.9 nm/s.

On to `O=C(Nc1ccc(C(=O)O)c(F)c1)c1ccc2c(c1)N(S(=O)(=O)c1cccc(C(F)(F)F)c1)CC2`, for which the pIC50 is 4.37 in data set [1]; 4.49 in data set [2]; 4.14 in data set [3]; 6.78 in data set [4]; 7.10 in data set [5]. The solubility kinetic in data set [6] stood at 9 µg/mL (≈ 17.7 µM). Also, the logD in data set [7] stood at 2.77. The Papp in data set [8] came out at 19.9 nm/s.

In the case of `COc1ccc(Cl)cc1S(=O)(=O)N1CCc2ccc(C(=O)Nc3ccc(C(=O)O)c(Cl)c3)cc21`, the pIC50 in data set [1] was 6.12; in data set [2] it was 6.01; in data set [3], 5.47; in data set [4], 6.88; in data set [5], 7.03. Moreover, in data set [6], the solubility kinetic is more than 579 µg/mL. The compound also showed a logD in data set [7] of 0.26. Moreover, in data set [8], the Papp was determined as 12 nm/s.
